Assay results from US11230570B2, “Peptide for regulating reactivity to serotonin reuptake inhibitor based antidepressant, and use thereof” (DAEGU GYEONGBUK INSTITUTE OF SCIENCE AND TECHNOLOGY, priority 2018, dated 2022).
Counter-ions that a name gives are not always drawn. No end group written: not given here.

Assays:
mice [1] = assay: Novelty suppressed feeding test (NSF/NFS); type: in vivo, mouse; details: in s (unit assumed); for NSF test latency: CNO 0.3 mg/kg
Experimental: For chronic drug administration, 2 to 5 mice were housed in each cage. Fluoxetine hydrochloride (Spectrum Chemicals, USA) was intraperitoneally injected (10 mg kg-1 day-1) daily for 3 weeks. The drug was prepared by being dissolved in dimethyl sulfoxide (50%), and diluted with saline. For a control, a drug-free vehicle solution (0.9% saline) was administered daily. For a Gi-DREADD mouse experiment, clozapine-N-oxide (CNO; Sigma-Aldrich, USA) was directly dissolved in a 0.9% saline solution. A dose of CNO was 0.3 mg/kg, and 2 hours before each behavioral test, 100 μl/10 g of a solution per body weight was intraperitoneally injected.
(4) Novelty Suppressed Feeding Test (NSF)
(§1) The test was carried out for 15 minutes by partially changing a conventional method. 24 hours before behavioral testing, all food provided to the home cage was removed. […], a single 1.8-cm square-shaped food pellet was placed on a white filter paper positioned in the center of the test box. The mouse was placed in the corner of an open field, and a stopwatch was immediately operated. The latency to first bite food was recorded. Immediately after the test, the mice were placed in the home cage, and the amount of food intake was measured for 10 minutes.

[2] = test system: BrdU+ proliferating cells in the subgranular zone of the dentate gyrus; assay: BrdU labeling and neurogenic analysis; type: in vivo, mouse
Experimental: 1-8. BrdU Labeling and Neurogenic Analysis
Before the mice were sacrificed, a BrdU solution (200 mg/kg) was intraperitoneally administered for 3 hours. After transcardial perfusion, brain tissue was fixed with 4% PFA overnight, coronal sections with a 40-μm thickness were collected along the hippocampal rostro-caudal axis using a cryostat (CM3050S, Leica). The sections were processed using a free-floating method. Every sixth section throughout the hippocampus was subjected to BrdU immunohistochemical staining. Afterward, sections were pre-incubated with 1M HCl at 45° C. for 30 minutes to denature DNA, and washed three times with 0.1M PBS for neutralization. Immunohistochemistry was performed with α-BrdU (rat polyclonal, 1:200, Abcam, Cambridge, Mass., USA) and Alexa-Fluor™-conjugated secondary antibodies (1:400, Life Technologies, USA). A tester who was not given information on a slide code counted BrdU-labeled cells in the granule cell layer (GCL) and the subgranular zone (SGZ) of the dentate gyrus (DG) in the total of 12 sections derived from individual mice. The total number of BrdU-labeled cells per section was determined and multiplied by 6 to obtain the total number of cells per dentate gyrus.

mossy cells = assay: Electrophysiological recording of hippocampal mossy cells in brain slices; type: cell-based, mouse; details: for activity of mossy cells: CNO perfused on slices
Description: Electrophysiological Evaluation of Hippocampal Mossy Cells […] To label and visualize mossy cells in hippocampal slices, a recombinant AAV vector (AAV2.EF1α.DIO.AcGFP1-myc) was bilaterally injected into the dentate hilus of the ventral hippocampus in […]. AcGFP1 was selectively expressed in the mossy cells. While recording the electrophysiological evaluation, the morphology, membrane capacitance and electrophysiological properties of the mossy cells were further confirmed. (2) Preparation of Slices 12-15-week male mice were euthanized with CO2. Subsequently, their brains were extracted and placed in an N-Methyl-D-glucamine-containing cutting solution (93 mM NMDG, 2.5 mM KCl, 1.2 mM NaH2PO4, 30 mM NaHCO3, 25 mM glucose, 20 mM HEPES, 5 mM sodium ascorbate, 3 mM sodium pyruvate, 2 mM thiourea, 0.5 mM CaCl2), 10 mM MgSO4. pH 7.4, 295-305 mM mOsm) on cold ice. The brain tissue slices (400-μm thickness) containing the ventral hippocampus were prepared using a VT1000 S Vibratome (Leica Microsystems Inc., Buffalo Grove, Ill., USA). After cutting, slices were allowed to recover in the cutting solution at 37° C. for 15 minutes, and then transferred to a recording solution at room temperature for at least 1 hour before recording of the electrophysiological evaluation. (3) Electrophysiological Recording Electrophysiological recordings were performed as described above. During recording, brain slices were placed in a perfusion chamber attached to a fixed stage of an upright microscope BX51WI (Olympus, Tokyo, Japan), and immersed in a continuously flowing oxygenated recording solution. Components contained in the solution are as follows: 125 mM NaCl, 25 mM NaHCO3, 25 mM glucose, 2.5 mM KCl, 1.25 mM NaH2PO4, 2 mM CaCl2) and 1 mM MgCl2, pH 7.4, 295-305 mM mOsm. Neurons were visualized with a 40× water immersion lens using near infrared (IR) light. Electrophysiological recording was performed using a Multiclamp 700B/Digidata 1440A system (Molecular Devices, Sunnyvale, Calif., USA). Patch electrodes were filled with an internal solution (126 mM K-gluconate, 10 mM KCl, 10 mM HEPES, 10 mM phosphocreatine, 4 mM ATP and 0.3 mM GTP, pH 7.3, 290 mM mOsmol). Whole-cell patch-clamp recordings were used to record spontaneous action potentials of mossy cells in the hippocampal slides, and all recording was performed at 37° C. […] In addition, CNO (1 mM) was perfused on the brain tissue slices to confirm the effect of Gi-DREADD. Experimental data was analyzed by pClamp10 software (Molecular Devices) and GraphPad Prism 6 (GraphPad Software, La Jolla, Calif., USA).

[3] = test system: newborn postmitotic cells (DCX); assay: Doublecortin (DCX) immunostaining of immature neurons; type: in vivo, mouse; details: chronic fluoxetine administration, control mice
Experimental: 1-7. Immunohistochemistry
Immunostaining was carried out using the standard free-floating method. Sections were washed three times with PBS for 10 minutes each time, and incubated with 2% normal donkey serum, 0.2% bovine serum albumin and 0.3% Triton-X100. After blocking, the sections were incubated with primary antibodies diluted with a blocking buffer overnight at 4° C., the following primary antibodies were used: α-doublecortin (goat polyclonal, 1:200, Santa Cruz Biotech.), α-calretinin (mouse monoclonal, 1:500, SWANT), α-parvalbumin (rabbit polyclonal, 1:1000, SWANT), α-neuropeptide Y (rabbit polyclonal, 1:1000, Phoenix Pharmaceutical), α-GluR2/3 (rabbit polyclonal, 1:100, Millipore). After incubation for 24 hours, the sections were washed three times with PBS containing 0.2% Triton-X100 (PBS-T) for 10 minutes, and then incubated with Alexa-Fluor™-conjugated secondary antibodies (1:400, Life Technologies, USA) at room temperature for 3 hours. The sections were washed three times with PBS-T at room temperature for 10 minutes, and covered with a Prolong™ Gold, anti-fading mounting medium (Life Technologies, USA).

mice [4] = assay: Tail suspension test (TST); type: in vivo, mouse; details: for inactivity (immobility) in TST: in s (unit assumed)
Experimental: (5) Tail Suspension Test (TST) Mice were suspended by tails for 6 minutes. A test session was videotaped, and their immobility was scored using automated TST analysis software of Clever System (Reston, Va., USA). The immobility time during the last 4 minutes (excluding the initial 2 minutes) was calculated.

mice [5] = assay: Home cage feeding (HCF) test; type: in vivo, mouse; details: for home cage feeding level: control AcGFP1 and PASIP-AcGFP1 mice, chronic fluoxetine
Experimental: as §1

[6] = target: T1, p11/AnxA2/SMARCA3 complex (Homo sapiens, UniProt P07355+P60903); assay: Immunoprecipitation of p11/AnxA2/SMARCA3 complex in HEK293 cells; type: binding; details: in vitro immunoprecipitation with α-SMARCA3, HEK293 cells
T1 construct: endogenous in cells; host or cells: HEK293 (CRL-1573, ATCC)
Experimental: 1-4. Immunoprecipitation of p11/AnxA2/SMARCA3 Complex
HEK293 cells (CRL-1573, ATCC) were transfected with a CMV-Cre plasmid, and 24 hours after transfection, transfected with an AAV vector expressing the control AcGFP1 or PASIP-AcGFP1 construct. Immunoprecipitation was performed with α-SMARCA3 antibodies (rabbit polyclonal antibodies prepared with immunized peptides). Immunoblotting was performed using the following antibodies according to a standard protocol: α-p11 (mouse monoclonal, 1:1000, BD Biosciences), α-p11 (goat polyclonal, 1:200, R&D Systems), α-SMARCA3 (goat polyclonal, 1:200, NOVUS), α-AnxA2 (mouse monoclonal, Santa Cruz Biotech.), α-GFP (goat polyclonal, Santa Cruz Biotech).

mice [7] = assay: Light and dark box test; type: in vivo, mouse; details: PASIP-AcGFP1 mice vs control AcGFP1 154±16; p<0.01
Experimental: (3) Light and Dark Box Test (LD Box)
Mice were placed in an open field area (40×40×40 cm). A black box was inserted into the open field. The mice were placed into light compartments at the beginning of a session, and allowed to freely move between the compartments for 10 minutes. The time spent in each compartment and the latency to first enter the dark compartment were measured using automated Superflex™ software.

T1 sequence (P60903 whole entry): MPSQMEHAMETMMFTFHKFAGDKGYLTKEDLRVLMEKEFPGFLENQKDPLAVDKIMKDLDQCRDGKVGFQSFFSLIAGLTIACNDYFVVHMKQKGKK
T1 sequence (P07355 2-339 limits assumed): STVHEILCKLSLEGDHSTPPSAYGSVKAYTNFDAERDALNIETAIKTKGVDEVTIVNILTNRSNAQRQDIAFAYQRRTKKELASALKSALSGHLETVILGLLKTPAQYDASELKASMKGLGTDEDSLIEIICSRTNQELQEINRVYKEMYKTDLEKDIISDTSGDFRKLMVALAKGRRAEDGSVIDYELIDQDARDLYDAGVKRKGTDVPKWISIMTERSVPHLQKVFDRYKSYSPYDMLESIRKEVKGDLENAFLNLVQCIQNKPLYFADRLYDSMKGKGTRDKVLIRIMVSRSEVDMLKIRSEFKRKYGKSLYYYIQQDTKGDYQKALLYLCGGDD

Question: How did the NSF test latency (mice [1]; Gi-DREADD mice, chronic FLX (SAL 450±36)) turn out when `CNCCC(Oc1ccc(C(F)(F)F)cc1)c1ccccc1` (stereo not shown) [FLX, Fluoxetine hydrochloride] was run?
Answer: 365±40

Question: What about the “latency to access a food pellet” value (mice [1]; Smarca3f/f control mice (D2-Cre experiment), chronic FLX (SAL 257±47)) of the same molecule?
Answer: 104±12

Question: And the “latency to access a food pellet” value (mice [1]; Smarca3f/f control mice (MC-Cre experiment), chronic FLX (SAL 338±20))?
Answer: 229±40

Question: What about the “latency to access a food pellet” value (mice [1]; Smarca3f/f;D2-Cre conditional knockout mice, chronic FLX (SAL 192±15)) of the same molecule?
Answer: 232±32

Question: What about the “latency to access a food pellet” value (mice [1]; Smarca3f/f;MC-Cre conditional knockout mice, chronic FLX (SAL 405±88)) of the same molecule?
Answer: 404±69

Question: And the NSF test latency (mice [1]; control (mCherry) mice, chronic FLX (SAL 484±85))?
Answer: 238±40

Question: And the latency to feed (mice [1]; control AcGFP1 mice, chronic fluoxetine (SAL 296±48))?
Answer: 147±22

Question: And the “latency to access a food pellet” value (mice [1]; p11f/f control mice, chronic FLX 10 mg/kg/day i.p. 3 weeks (SAL 351±38))?
Answer: 165±24

Question: And the “latency to access a food pellet” value (mice [1]; p11f/f;D2-Cre conditional knockout mice, chronic FLX (SAL 364±46))?
Answer: 296±58

Question: And the “number of BrdU+ proliferating cells in the subgranular zone” value ([2]; Gi-DREADD mice, chronic FLX (SAL 172±27))?
Answer: 232±20

Question: And the “number of BrdU+ proliferating cells in the subgranular zone” value ([2]; control (mCherry) D2-Cre mice, chronic FLX (SAL 177±18))?
Answer: 337±37

Question: What about the “BrdU+ proliferating cells” value ([2]; control mice, chronic fluoxetine (SAL 173±16)) of the same molecule?
Answer: 290±43

Question: What about the “mossy cell activity (spontaneous firing rate)” value (mossy cells; acute fluoxetine treatment) of the same molecule?
Answer: had no effect on mossy cell activity

Question: What about the “spontaneous firing rate of mossy cells” value (mossy cells; chronic fluoxetine treatment (control 2.36±0.41 Hz)) of the same molecule?
Answer: 4.19±0.92 Hz

Question: And the “survival and differentiation of newborn neuronal progenitors (DCX expression)” value [3]?
Answer: enhanced the survival of newborn neuronal progenitors and promoted differentiation into mature neurons

Question: And the “inactivity (immobility) in TST” value (mice [4]; Gi-DREADD mice, chronic FLX (SAL 128±9))?
Answer: 129±10

Question: And the “inactivity (immobility) in TST” value (mice [4]; control (mCherry) mice, chronic FLX (SAL 141±9))?
Answer: 110±9

Question: What about the “home cage feeding level” value (mice [5]) of the same molecule?
Answer: did not have a significant influence

Question: What about the “food intake after coming back to the home cage” value (mice [5]; control and p11 / Smarca3 cKO mice, chronic SSRI) of the same molecule?
Answer: no change in food intake

Question: For `C[N+]1([O-])CCN(C2=Nc3cc(Cl)ccc3Nc3ccccc32)CC1` [CNO, clozapine-N-oxide], which “activity of mossy cells” value (mossy cells; Gi-DREADD mice, mCherry-labeled mossy cells) is on record?
Answer: silenced

Question: And the “activity of mossy cells” value (mossy cells; control mCherry mice)?
Answer: not in control mice

Question: Which “assembly of the p11/AnxA2/SMARCA3 complex” value [6] does the source give for “PASIP-AcGFP1: p11/AnxA2/SMARCA3 complex inhibitory peptide-AcGFP1 fusion construct, expressed from a Cre-dependent AAV vector (GNGNGKVTFPKMKIPKFSGR; also: fused to AcGFP1)” here?
Answer: able to block the assembly of the p11/AnxA2/SMARCA3 complex

Question: What about the latency to feed (mice [1]; PASIP-AcGFP1 mice, SAL) of the same molecule?
Answer: 304±51

Question: What about the latency to feed (mice [1]; PASIP-AcGFP1 mice, chronic FLX) of the same molecule?
Answer: 293±54

Question: And the light/dark box test (mice [7])?
Answer: 94±13

Question: And the “BrdU+ proliferating cells” value ([2]; PASIP-AcGFP1 mice (AAV, mossy cells), SAL)?
Answer: 119±27

Question: And the “BrdU+ proliferating cells” value ([2]; PASIP-AcGFP1 mice (AAV, mossy cells), chronic FLX)?
Answer: 129±13

Question: And the “firing rate of mossy cells” value (mossy cells; mossy cells expressing construct (control AcGFP1 3.58±0.56 Hz))?
Answer: 0.64±0.10 Hz

Question: What about the “resting membrane potential in mossy cells” value (mossy cells; mossy cells expressing construct (control AcGFP1 −47.33±1.77 mV)) of the same molecule?
Answer: −54.33±1.32 mV

Question: What about the “effect of fluoxetine in tail-suspension test” value (mice [4]; PASIP-AcGFP1 mice, chronic fluoxetine) of the same molecule?
Answer: reduced an effect caused by fluoxetine administration

Question: And the “home cage feeding level” value (mice [5])?
Answer: did not have a significant influence
